According to patent US20150105252A1, “SUBSTITUTED PYRAZOLES AS HERBICIDES” (E I DU PONT DE NEMOURS AND COMPANY, priority 2013, published 2015):

Experiments:
[1] = test system: lambsquarters; experiment: Test C postemergence; type: in vivo, Chenopodium album; details: for Plant response rating (scale of 0 to 100 where 0 is no effect and 100 is complete control), Lambsquarters: Postemergence, 31 g ai/ha, visually evaluated after 13 to 15 days; for Lambsquarters plant response rating / Plant response rating, Lambsquarters: postemergence; for Lambsquarters plant response rating: 62 g ai/ha, scale 0 to 100
How it was run: (§1)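 In this greenhouse assay, seeded soil (loam plus sand) or emerged seedlings in peat-vermiculite medium were treated with formulated compound. Roughly two weeks later (13–15 days), each species was scored visually relative to controls, from 0 for no effect to 100 for complete control.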

[2] = test system: ryegrass, Italian; experiment: Test C preemergence; type: in vivo, Lolium multiflorum; details: preemergence; for Plant response rating, Ryegrass, Italian: 125 g ai/ha, scale 0 to 100, 0 = no effect, 100 = complete control
How it was run: as §1

[3] = test system: crabgrass, large; experiment: Test A postemergence; type: in vivo, Digitaria sanguinalis
How it was run: (§2)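 Growth medium: loam soil blended with sand. Preemergence treatment used a directed soil spray right after planting; postemergence treatment targeted seedlings at one to two leaves (2–10 cm height). Response was judged by eye relative to untreated plants about 10 days later on a 0–100 control scale.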

[4] = test system: ragweed; experiment: Test C preemergence; type: in vivo, Ambrosia elation; details: preemergence; for Plant response rating, Ragweed: 125 g ai/ha, scale 0 to 100, 0 = no effect, 100 = complete control
How it was run: as §1

[5] = test system: soybean; experiment: Test C postemergence; type: in vivo, Glycine max; details: postemergence; for Plant response rating, Soybean: 250 g ai/ha, scale 0 to 100 (0 no effect, 100 complete control); for Soybean plant response rating: 125 g ai/ha, scale 0 to 100, 0 no effect, 100 complete control
How it was run: as §1

[6] = test system: corn; experiment: Test A preemergence; type: in vivo, Zea mays; details: preemergence; for Corn plant response rating (0 to 100 scale): 125 g ai/ha, visual injury approx. 10 days after treatment; for Corn plant response rating: 500 g ai/ha, visual injury after approx. 10 days, 0 to 100 scale (0 no effect, 100 complete control)
How it was run: as §2

[7] = test system: pigweed; experiment: Test A postemergence; type: in vivo, Amaranthus retroflexus; details: Postemergence
How it was run: as §2

[8] = test system: pigweed; experiment: Test C postemergence; type: in vivo, Amaranthus retroflexus; details: postemergence; for Pigweed plant response rating: 62 g ai/ha, scale 0 to 100
How it was run: as §1

[9] = test system: ryegrass, Italian; experiment: Test C postemergence; type: in vivo, Lolium multiflorum; details: postemergence
How it was run: as §1

[10] = test system: wheat; experiment: Test C preemergence; type: in vivo, Triticum aestivum; details: preemergence; for Plant response rating, Wheat: 125 g ai/ha, scale 0 to 100, 0 = no effect, 100 = complete control
How it was run: as §1

[11] = test system: oat, wild; experiment: Test C postemergence; type: in vivo, Avena fatua; details: for Plant response rating (scale of 0 to 100 where 0 is no effect and 100 is complete control), Oat, Wild: Postemergence, 31 g ai/ha, visually evaluated after 13 to 15 days; for Oat, Wild plant response rating / Plant response rating, Oat, Wild: postemergence; for Oat, Wild plant response rating: 62 g ai/ha, scale 0 to 100
How it was run: as §1

[12] = test system: sedge, umbrella; experiment: Test B flood; type: in vivo, Cyperus difformis; details: 250 g ai/ha, visual rating on 0 to 100 scale (0 no effect, 100 complete control), 13 to 15 days
How it was run: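 Two-leaf-stage plants, pots flooded (3 cm above soil) and treated through the water, which stayed at that depth. After 13–15 days in greenhouse conditions, visual assessment versus controls: 0 is no effect, 100 complete control, dash means no result.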

[13] = test system: morningglory; experiment: Test A preemergence; type: in vivo, Ipomoea spp.; details: preemergence; for Morningglory plant response rating (0 to 100 scale): 125 g ai/ha, visual injury approx. 10 days after treatment; for Morningglory plant response rating: 500 g ai/ha, visual injury after approx. 10 days, 0 to 100 scale (0 no effect, 100 complete control)
How it was run: as §2

[14] = 250 g ai/ha, scale 0 to 100 (0 no effect, 100 complete control)
[15] = 125 g ai/ha, scale 0 to 100, 0 no effect, 100 complete control
[16] = 31 g ai/ha, visual rating, scale 0 to 100 (0 no effect, 100 complete control), 13 to 15 days
[17] = 62 g ai/ha, scale 0 to 100 (0 no effect, 100 complete control), 13 to 15 days
[18] = 250 g ai/ha, scale 0 to 100, 0 is no effect, 100 is complete control
[19] = Postemergence, 500 g ai/ha, 0 to 100 scale (0 no effect, 100 complete control)
[20] = postemergence, 125 g ai/ha, about 10 days, visual rating on 0 to 100 scale (0 no effect, 100 complete control)
[21] = 125 g ai/ha, 0 to 100 scale, 0 no effect, 100 complete control
[22] = 500 g ai/ha, 0 to 100 scale (0 no effect, 100 complete control)

Compound | Plant response rating (scale of 0 to 100 where 0 is no effect and 100 is complete control), Lambsquarters [1] | Lambsquarters plant response rating [1] | Plant response rating, Lambsquarters [1, 14] | Plant response rating, Lambsquarters [1, 15] | Ryegrass, Italian plant response rating [2, 16] | Ryegrass, Italian plant response rating [2, 17] | Plant response rating, Ryegrass, Italian ([2]; 13 to 15 days) | Ryegrass, Italian plant response rating [2, 18] | Crabgrass, Large plant response rating [3, 19] | Crabgrass, Large plant response rating [3, 20] | Ragweed plant response rating [4, 16] | Ragweed plant response rating [4, 17] | Plant response rating, Ragweed ([4]; 13 to 15 days) | Ragweed plant response rating [4, 18] | Plant response rating, Soybean [5] | Soybean plant response rating [5] | Corn plant response rating (0 to 100 scale) [6] | Corn plant response rating [6] | Pigweed plant response rating [7, 21] | Pigweed plant response rating [7, 22] | further results
CCCc1cc(C(=O)NC(C)C)nn1Cc1cc(C(F)(F)F)nn1C [Compound 201] | 65 | 80 | 95 | 90 | 65 | 90 | 90 | 90 | 100 | 90 | 80 | 85 | 95 | 98 | 98 | 95 | 10 | 90 | 100 | 100 | Pigweed plant response rating [8]: 65; Plant response rating, Pigweed [8, 14]: 90; Plant response rating, Pigweed [8, 15]: 80; Plant response rating, Ryegrass, Italian [9, 14]: 15; Plant response rating, Ryegrass, Italian [9, 15]: 5; Wheat plant response rating [10, 16]: 80; Wheat plant response rating [10, 17]: 85; Plant response rating, Wheat ([10]; 13 to 15 days): 90; Wheat plant response rating [10, 18]: 90; Plant response rating (scale of 0 to 100 where 0 is no effect and 100 is complete control), Oat, Wild [11]: 5; Oat, Wild plant response rating [11]: 10; Plant response rating, Oat, Wild [11, 14]: 40; Plant response rating, Oat, Wild [11, 15]: 25; Plant response rating, Sedge, Umbrella [12]: 95; Morningglory plant response rating (0 to 100 scale) [13]: 100; Morningglory plant response rating [13]: 100
CCCc1cc(C(=O)NC2CC2)nn1Cc1cc(C(F)(F)F)nn1C [Compound 202] | 70 | 80 | 90 | 85 | 5 | 50 | 90 | 90 | 100 | 90 | 75 | 95 | 95 | 100 | 98 | 98 | 10 | 40 | 100 | 100 | Pigweed plant response rating [8]: 80; Plant response rating, Pigweed [8, 14]: 95; Plant response rating, Pigweed [8, 15]: 90; Plant response rating, Ryegrass, Italian [9, 14]: 5; Plant response rating, Ryegrass, Italian [9, 15]: 5; Wheat plant response rating [10, 16]: 0; Wheat plant response rating [10, 17]: 85; Plant response rating, Wheat ([10]; 13 to 15 days): 85; Wheat plant response rating [10, 18]: 90; Plant response rating (scale of 0 to 100 where 0 is no effect and 100 is complete control), Oat, Wild [11]: 5; Oat, Wild plant response rating [11]: 5; Plant response rating, Oat, Wild [11, 14]: 30; Plant response rating, Oat, Wild [11, 15]: 10; Plant response rating, Sedge, Umbrella [12]: 80; Morningglory plant response rating (0 to 100 scale) [13]: 100; Morningglory plant response rating [13]: 100
